These are literature values, as cited in patent US20210259278A1, “CHEWING GUM CONTAINING VITAMIN C” (priority 2018, published 2021).

Structures are written as SMILES.

The test system of this series is nausea in humans.

Consider `O=C1O[C@H]([C@@H](O)CO)C(O)=C1O` [vitamin C, L-(+)-ascorbic acid], for which, where the note is “administration of vitamin C, for example in connection with seasickness”, the treatment of nausea result was “found to be effective”. For the setting “vitamin C alone”, the “prevention of the occurrence of nausea in all test subjects” value is “could not reliably prevent the occurrence of nausea in all test subjects”.
